These results are taken from US8912200B2, “Alkynyl substituted pyrimidinyl-pyrroles active as kinases inhibitors” (Nerviano Medical Sciences S.R.L., priority 2011, dated 2014).

Broadly, the pIC50 is the IC50 on a negative log10 scale, so that one unit is a factor of ten. A lower pIC50 goes with a high IC50.

The target in one experiment is T1, JAK2 kinase domain (Homo sapiens, UniProt O60674).
T1 construct: commercially available JAK2 kinase domain; purchased Invitrogen, Eugene, Oreg
The experiment in a line: Biochemical assay for inhibitors of JAK kinase activity (JAK2, 33P-γ-ATP/dowex resin). Particulars: JAK2 kinase domain 1 nM, 60 μM ATP. The source says:
Biochemical Assay for Inhibitors of JAK Kinase Activity
Specific JAK2, JAK1 or JAK3 peptide substrates are trans-phosphorylated by JAK kinases in the presence of ATP traced with 33P-γ-ATP. At the end of the phosphorylation reaction, the unreacted ATP, cold and radioactive, is captured by an excess of dowex ion exchange resin that eventually settles by gravity to the bottom of the reaction plate. The supernatant is subsequently withdrawn and transferred into a counting plate that is then evaluated by β-counting.
500 g of wet resin (SIGMA, custom prepared resin DOWEX 1×8 200-400 mesh, 2.5 Kg) are weighed out and diluted 2 to 1 in 150 mM sodium formate, pH 3.00. The resin is allowed to settle down overnight and then the supernatant is discarded. After three washes as above over a couple of days, the resin is allowed to settle and two volumes (with respect to the resin volume) of 150 mM sodium formate buffer are added.
Kinase buffer was composed of 50 mM HEPES pH 7.5 containing 10 mM MgCl2, 2.5 mM DTT, 10 μM Na3VO4 and 0.2 mg/mL BSA.
JAK2 Specific Assay Conditions
The JAK2 kinase assay was run with a final enzyme concentration of 1 nM, in the presence of 60 μM ATP, 3 nM 33P-γ-ATP and 64 μM of substrate BioDBn*306 (Aminoacid sequence: LPLDKDYYVVREPGQ—SEQ ID NO: 1). The peptidic substrate was purchased from American Peptide Company (Sunnyvale, Calif.).
(§1) For IC50 determination, test compounds are received as a 1 mM solution in 100% DMSO, distributed into 96 well plates: compounds are then plated into the first column of a microtiter plate (A1 to G1), 100 μL/well.
(§2) An automated station for serial dilutions (Biomek FX, Beckman) is used for producing 1:3 dilutions in 100% DMSO, from line A1 to A10, and for all the compounds in the column. Moreover, 4-5 copies of daughter plates are prepared by reformatting 5 μL of this first set of 100% DMSO dilution plates into 384 deep well-plates: one of these plates with the serial dilutions of test compounds will be thawed the day of the experiments, reconstituted at a 3× concentration with water and used in the IC50 determination assays. In a standard experiment, the highest concentration (3×) of all compounds is 30 μM, while the lowest one is 1.5 nM. Each 384 well-plate will contain at least one curve of the standard inhibitor staurosporine and reference wells (total enzyme activity vs. no enzymatic activity) for the Z′ and signal to background evaluation.
384-well plates, V bottom (test plates) are prepared with 5 μL of the compound dilution (3×) and then placed onto a PlateTrak 12 robotized station (Perkin Elmer; the robot has one 384-tip pipetting head for starting the assay plus one 96-tip head for dispensing the resin) together with one reservoir for the Enzyme mix (3×) and one for the ATP mix (3×). At the start of the run, the robot aspirates 5 μL of ATP mix, makes an air gap inside the tips (3 μl) and aspirates 5 μL of JAK2 mix. The following dispensation into the plates plus 3 cycles of mixing, done by the robot itself, starts the kinase reaction. At this point, the correct concentrations are restored for all the reagents. The robot incubates the plates for 60 minutes at room temperature, and then stops the reaction by pipetting 60 μL of dowex resin suspension into the reaction mix. In order to avoid tip clogging, wide bore tips are used to dispense the resin suspension. Three cycles of mixing are done immediately after the addition of the resin. Another mixing cycle is performed after all the plates are stopped, this time using normal tips: the plates are then allowed to rest for about one hour in order to allow resin sedimentation. At this point, 27 μL of the supernatant are transferred into 384-Optiplates (Perkin-Elmer), with 50 μL of Microscint 40 (Perkin-Elmer); after 5 min of orbital shaking the plates are read on a Perkin-Elmer Top Count radioactivity counter. […]

For experiment [1], the system named is JAK2 dependent human megakaryoblastic leukemia cell line SET-2. As to the kind of experiment: Cell proliferation assay (CellTiter-Glo, 72 hours). In kind it is cell-based. Particulars: Homo sapiens, SET-2 cells. Here is the method: The JAK2 dependent human megakaryoblastic leukemia cell line SET-2 (DSMZ, Braunschweig GERMANY) and the JAK2 independent human chronic myelogenous leukaemia cell line K562 (ECACC, Wiltshire, UK) were cultured in RPMI-1640 medium-Glutamax (Gibco BRL, Gaithesburg, Md., USA), supplemented with 10% fetal bovine serum (FBS) at 37° C. and 5% CO2.
Cell Proliferation Assay:
Approximately 5×10^3 cells were plated into 384 microtiter plate wells in 50 μL of growth media with different concentrations of inhibitors. The cells were incubated at 37° C. and 5% CO2 for 72 hours, then the plates were processed using CellTiter-Glo assay (Promega, Madison, Wis., USA) following the manufacturer's instruction. Briefly 25 μL/well reagent solution is added to each well and after 5 minutes shaking the micro-plates are read by Envision luminometer (PerkinElmer, Waltham, Mass., USA).
Data are analyzed by Symix Assay Explorer software (Symix Technologies Inc.) that provides sigmoidal fitting algorithm of the 8 points dilutions curves for IC50 determination.
In general terms: Cellular ATP, detected with luciferase, serves as a proxy for viable cell number.

Another experiment has as its target T2, Lyn full length (Homo sapiens, UniProt P07948).
T2 construct: The assay has been performed using Lyn full length
The experiment in a line: Biochemical assay for inhibitors of Lyn (Src family) kinase activity. Particulars: Lyn full length 1 nM, 25 μM ATP.
From the text: Biochemical Assay for Inhibitors of Lck and Lyn (Src Family) Kinases Activity
Specific Lck and Lyn substrates are trans-phosphorylated by Lck and Lyn kinases in the presence of ATP traced with 33P-γ-ATP. At the end of the phosphorylation reaction, the unreacted ATP, cold and radioactive, is captured by an excess of dowex ion exchange resin that eventually settles by gravity to the bottom of the reaction plate. The supernatant is subsequently withdrawn and transferred into a counting plate that is then evaluated by β-counting.
Lyn Specific Assay Conditions
The assay has been performed using Lyn full length (accession number P07948 of UniProtKB/Swiss-Prot database).
Kinase buffer was composed of 50 mM HEPES pH 7.5 containing 3 mM MgCl2, 1 mM DTT, 3 μM Na3VO4, and 0.2 mg/mL BSA.
The Lyn kinase assay was run with a final enzyme concentration of 1 nM, in the presence of 25 μM ATP, 1.5 nM 33P-γ-ATP and 250 μM of substrate ABI 1 (Aminoacid sequence: EAIYAAPFAKKK—SEQ ID NO: 3). The peptidic substrate was purchased from American Peptide Company (Sunnyvale, Calif.).
as §1, §2
384-well plates, V bottom (test plates) are prepared with 5 μL of the compound dilution (3×) and then placed onto a PlateTrak 12 robotized station (Perkin Elmer; the robot has one 384-tip pipetting head for starting the assay plus one 96-tip head for dispensing the resin) together with one reservoir for the Enzyme mix (3×) and one for the ATP mix (3×). At the start of the run, the robot aspirates 5 μL of ATP mix, makes an air gap inside the tips (3 μl) and aspirates 5 μL of JAK2 mix. The following dispensation into the plates plus 3 cycles of mixing, done by the robot itself, starts the kinase reaction. At this point, the correct concentrations are restored for all the reagents. The robot incubates the plates for 60 minutes at room temperature, and then stops the reaction by pipetting 60 μL of dowex resin suspension into the reaction mix. In order to avoid tip clogging, wide bore tips are used to dispense the resin suspension. Three cycles of mixing are done immediately after the addition of the resin. Another mixing cycle is performed after all the plates are stopped, this time using normal tips: the plates are then allowed to rest for about one hour in order to allow resin sedimentation. At this point, 27 μL of the supernatant are transferred into 384-Optiplates (Perkin-Elmer), with 50 μL of Microscint 40 (Perkin-Elmer); after 5 min of orbital shaking the plates are read on a Perkin-Elmer Top Count radioactivity counter.
Data are analyzed by an internally customized version of the SW package “Assay Explorer” that provides sigmoidal fitting of the ten-dilutions curves for IC50 determination in the secondary assays/hit confirmation routines.

pIC50: −log10 of the molar value.

T1 sequence (O60674 849-1124 limits assumed): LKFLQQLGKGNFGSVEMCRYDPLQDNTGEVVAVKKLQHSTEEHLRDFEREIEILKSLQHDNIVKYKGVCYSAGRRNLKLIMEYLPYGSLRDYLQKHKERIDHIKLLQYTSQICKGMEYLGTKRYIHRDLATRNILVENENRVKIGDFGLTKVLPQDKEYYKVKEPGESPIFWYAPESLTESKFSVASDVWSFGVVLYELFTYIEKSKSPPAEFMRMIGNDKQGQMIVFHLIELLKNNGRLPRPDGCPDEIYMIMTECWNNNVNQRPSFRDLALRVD
T2 sequence (P07948 whole entry): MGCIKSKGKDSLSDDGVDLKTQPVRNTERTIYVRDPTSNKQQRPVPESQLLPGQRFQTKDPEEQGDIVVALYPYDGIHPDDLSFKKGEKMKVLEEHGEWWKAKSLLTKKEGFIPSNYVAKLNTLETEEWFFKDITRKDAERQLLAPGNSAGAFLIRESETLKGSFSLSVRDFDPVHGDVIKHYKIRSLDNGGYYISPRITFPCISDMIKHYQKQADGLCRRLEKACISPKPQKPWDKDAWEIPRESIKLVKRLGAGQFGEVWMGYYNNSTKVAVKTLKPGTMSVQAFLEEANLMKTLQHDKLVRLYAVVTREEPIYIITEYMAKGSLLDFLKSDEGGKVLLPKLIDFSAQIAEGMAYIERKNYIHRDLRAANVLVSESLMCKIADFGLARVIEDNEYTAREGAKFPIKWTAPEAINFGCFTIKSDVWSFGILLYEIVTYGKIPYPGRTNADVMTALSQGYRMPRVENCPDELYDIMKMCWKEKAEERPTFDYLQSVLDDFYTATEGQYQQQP

In the case of `Cc1ccc(Cl)cc1-c1[nH]c(-c2nc(N)ncc2C#Cc2cccc(O)c2)cc1C(N)=O` [compound 2, 5-{2-Amino-5-[(3-hydroxyphenyl)ethynyl]pyrimidin-4-yl}-2-(5-chloro-2-methylphenyl)-1H-pyrrole-3-carboxamide], the pIC50 at JAK2 kinase domain was 8.70; in experiment [1], 6.28; on Lyn full length, 8.22.

Turning to `Cc1ccc(Cl)cc1-c1[nH]c(-c2nc(N)ncc2C#Cc2cccc(N)c2)cc1C(N)=O` [compound 4, 5-{2-amino-5-[(3-aminophenyl)ethynyl]pyrimidin-4-yl}-2-(5-chloro-2-methylphenyl)-1H-pyrrole-3-carboxamide], the values for the pIC50 (on JAK2 kinase domain; in experiment [1]; against Lyn full length) were 9.00, 6.82 and 9.00, respectively.

Regarding `Cc1ccc(Cl)cc1-c1[nH]c(-c2nc(N)ncc2C#Cc2ccccc2N)cc1C(N)=O` [compound 6, 5-{2-Amino-5-[(2-aminophenyl)ethynyl]pyrimidin-4-yl}-2-(5-chloro-2-methylphenyl)-1H-pyrrole-3-carboxamide], the negative logarithm of the IC50 (pIC50) is 9.00 against JAK2 kinase domain, 6.62 in experiment [1] and 8.52 on Lyn full length.

Consider `Cc1ccc(Cl)cc1-c1[nH]c(-c2nc(N)ncc2C#Cc2ccc(N)cc2)cc1C(N)=O` [compound 8, 5-{2-Amino-5-[(4-aminophenyl)ethynyl]pyrimidin-4-yl}-2-(5-chloro-2-methylphenyl)-1H-pyrrole-3-carboxamide], for which the figures for the pIC50 (on JAK2 kinase domain; in experiment [1]; against Lyn full length) were 9.00, 6.85 and 8.70, respectively.

As to `COc1ccc(N)cc1C#Cc1cnc(N)nc1-c1cc(C(N)=O)c(-c2cc(Cl)ccc2C)[nH]1` [compound 9, 5-{2-Amino-5-[(5-amino-2-methoxyphenyl)ethynyl]pyrimidin-4-yl}-2-(5-chloro-2-methylphenyl)-1H-pyrrole-3-carboxamide], the pIC50 against JAK2 kinase domain was 9.00; in experiment [1] it was 6.47; against Lyn full length, 8.00.

As for `Cc1ccc(Cl)cc1-c1[nH]c(-c2nc(N)ncc2C#Cc2ccc(N3CCN(C)CC3)cc2)cc1C(N)=O` [compound 11, 5-(2-Amino-5-{[4-(4-methylpiperazin-1-yl)phenyl]ethynyl}pyrimidin-4-yl)-2-(5-chloro-2-methylphenyl)-1H-pyrrole-3-carboxamide], the pIC50 against JAK2 kinase domain is 8.40; in experiment [1], 7.05; against Lyn full length it was 8.10.

On to `Cc1ccc(Cl)cc1-c1[nH]c(-c2nc(N)ncc2C#Cc2cccc(NC3CCOCC3)c2)cc1C(N)=O` [compound 13, 5-(2-Amino-5-{[3-(tetrahydro-2H-pyran-4-ylamino)phenyl]ethynyl}pyrimidin-4-yl)-2-(5-chloro-2-methylphenyl)-1H-pyrrole-3-carboxamide], for which the negative logarithm of the IC50 (pIC50) against JAK2 kinase domain was 8.40; at Lyn full length, 8.10.

Turning to `Cc1ccc(Cl)cc1-c1[nH]c(-c2nc(N)ncc2C#Cc2cccc(NCCO)c2)cc1C(N)=O` [compound 15, 5-[2-Amino-5-({3-[(2-hydroxyethyl)amino]phenyl}ethynyl)pyrimidin-4-yl]-2-(5-chloro-2-methylphenyl)-1H-pyrrole-3-carboxamide], the pIC50 is 8.70 against JAK2 kinase domain, 6.62 in experiment [1] and 8.30 against Lyn full length.

On to `COc1ccc(NC2CCN(C)CC2)cc1C#Cc1cnc(N)nc1-c1cc(C(N)=O)c(-c2cc(Cl)ccc2C)[nH]1` [compound 22, 5-[2-Amino-5-({2-methoxy-5-[(1-methylpiperidin-4-yl)amino]phenyl}ethynyl)pyrimidin-4-yl]-2-(5-chloro-2-methylphenyl)-1H-pyrrole-3-carboxamide], for which the pIC50 on JAK2 kinase domain is 8.70; in experiment [1], 6.37; on Lyn full length it was 8.05.

For `Cc1ccc(Cl)cc1-c1[nH]c(-c2nc(N)ncc2C#Cc2cccc(CN3CCN(C)CC3)c2)cc1C(N)=O` [compound 24, 5-[2-Amino-5-({3-[(4-methylpiperazin-1-yl)methyl]phenyl}ethynyl)pyrimidin-4-yl]-2-(5-chloro-2-methylphenyl)-1H-pyrrole-3-carboxamide], the pIC50 was 8.70 at JAK2 kinase domain, 6.48 in experiment [1] and 8.30 against Lyn full length.

`Cc1ccc(Cl)cc1-c1[nH]c(-c2nc(N)ncc2C#Cc2ccc(N3CCC(N4CCN(C)CC4)CC3)cc2)cc1C(N)=O` [compound 25, 5-[2-Amino-5-({4-[4-(4-methylpiperazin-1-yl)piperidin-1-yl]phenyl}ethynyl)pyrimidin-4-yl]-2-(5-chloro-2-methylphenyl)-1H-pyrrole-3-carboxamide]: the pIC50 on JAK2 kinase domain was 8.70; in experiment [1], 6.77; at Lyn full length, 8.00.

As for `Cc1ccc(Cl)cc1-c1[nH]c(-c2nc(N)ncc2C#Cc2cccc(C(=O)N3CCN(C)CC3)c2)cc1C(N)=O` [compound 27, 5-[2-Amino-5-({3-[(4-methylpiperazin-1-yl)carbonyl]phenyl}ethynyl)pyrimidin-4-yl]-2-(5-chloro-2-methylphenyl)-1H-pyrrole-3-carboxamide], the pIC50 against JAK2 kinase domain was 9.00; in experiment [1], 6.24; against Lyn full length, 9.00.
